Assay results reported in ChEMBL document CHEMBL3046219, “Inhibitive Effect of Prodigiosin on the Proliferation of Human Malignant Pancreatic Cancer Cells” (Med Chem Res, 2005).
Active and inactive are the calls of the source. The rule behind the calls is not given here.

Experiments:
[1] = Cell cycle arrest in Homo sapiens (human) H8898 cells assessed as reduction in S phase cells at 12 to 50 umol after 24 hr by flow cytometry; assay type: functional, cell-based
[2] = species: Homo sapiens; assay: Induction of DNA fragmentation in Homo sapiens (human) H8898 cells at 50 umol after 24 hr by agarose gel electrophoresis; assay type: functional
[3] = species: Homo sapiens; assay: Induction of apoptosis in Homo sapiens (human) H8898 cells assessed as cell compaction at 12.5 umol after 12 hr by microscopy; assay type: functional
[4] = Cell cycle arrest in Homo sapiens (human) H8898 cells assessed as retardation at G1/S phase at 12 to 50 umol after 24 hr by flow cytometry; assay type: functional
[5] = Cytotoxicity against Homo sapiens (human) H8898 cells assessed as reduction in cell viability at 50 umol after 8 to 12 hr by MTT assay; assay type: functional
[6] = species: Homo sapiens; assay: Induction of apoptosis in Homo sapiens (human) H8898 cells at 12.5 to 50 umol after 24 hr by FACS analysis; assay type: functional
[7] = Cell cycle arrest in Homo sapiens (human) H8898 cells assessed as increase in G0-G1 phase cells at 12 to 50 umol after 24 hr by flow cytometry; assay type: functional, cell-based
[8] = species: Homo sapiens; assay: Inhibition of clone formation in Homo sapiens (human) H8898 cells after 5 days using trypan blue staining by inverted microscopy; assay type: functional
[9] = Drug uptake in Homo sapiens (human) H8898 cells after 24 hr by HPLC analysis; assay type: ADME
[10] = Cytotoxicity against Homo sapiens (human) H8898 cells assessed as reduction in cell viability at 50 umol after 12 hr by MTT assay; assay type: functional
[11] = species: Homo sapiens; assay: Cytotoxicity against Homo sapiens (human) H8898 cells assessed as reduction in cell viability at 50 umol by MTT assay; assay type: functional, cell-based; details: TDE = time-dependent effect
[12] = species: Homo sapiens; assay: Induction of DNA fragmentation in Homo sapiens (human) H8898 cells at 12.5 umol after 24 hr by agarose gel electrophoresis; assay type: functional
[13] = species: Homo sapiens; assay: Induction of oxidative stress in Homo sapiens (human) H8898 cells assessed as increase in intracellular ROS level after 12 hr using CDCFH-DA by spectrophotometry; assay type: functional, cell-based
[14] = species: Homo sapiens; assay: Cytotoxicity against Homo sapiens (human) H8898 cells assessed as reduction in cell viability at 50 umol up to 5 days by MTT assay; assay type: functional, cell-based
[15] = species: Homo sapiens; assay: Cytotoxicity against Homo sapiens (human) H8898 cells assessed as reduction in cell viability at 50 umol after 2 days by MTT assay; assay type: functional, cell-based
[16] = species: Homo sapiens; assay: Cytotoxicity against Homo sapiens (human) H8898 cells assessed as reduction in cell viability at 50 umol at 12 hr by MTT assay; assay type: functional, cell-based
[17] = species: Homo sapiens; assay: Induction of apoptosis in Homo sapiens (human) H8898 cells assessed as cytoplasm leakage into membrane bound vesicles at 12.5 umol after 12 hr by microscopy; assay type: functional
[18] = Cytotoxicity against Homo sapiens (human) H8898 cells assessed as reduction in cell viability at 25 umol after 12 hr by MTT assay; assay type: functional
[19] = (§1) Cytotoxicity against Homo sapiens (human) H8898 cells assessed as reduction in cell viability after 12 hr by MTT assay; assay type: functional, cell-based
[20] = species: Homo sapiens; assay: as §1; assay type: functional, cell-based
[21] = species: Homo sapiens; assay: Antiproliferative activity against Homo sapiens (human) H8898 cells after 5 days using trypan blue staining by hemocytometry; assay type: functional

Question: Which results are given for `CCCCCC1=C/C(=C/c2[nH]c(-c3ccc[nH]3)cc2OC)N=C1C` [PRODIGIOSIN]?
Answer: Activity [1]: Active; Activity [2]: Active; Activity [3]: Active; Activity [4]: Active; Activity [5]: 28%; Activity [6]: Active; Activity [7]: Active; Activity [8]: Active; Drug uptake [9]: Dose-dependent effect; Activity [10]: 34%; Activity [11]: tde; Activity [12]: Active; Activity [13]: Dose-dependent effect; Activity [14]: Active; Activity [15]: Active; Activity [16]: Active; Activity [17]: Active; Activity [18]: 5.6%; IC50 [19]: 75 µM; Activity [20]: Dose-dependent effect; Activity [21]: Active
